Experimental data reported in ChEMBL document CHEMBL1201862, “PubChem BioAssay data set” (2004).
The source made the active and inactive calls.

What was measured:
[1] = Counterscreen for IDE inhibitors: Luminescence-based cell-based high throughput dose response assay to identify compounds that are cytotoxic to HEK cells. [Related pubchem assays: 434962 (Primary screen (IDE inhibitors in singlicate)), 449730 (Counterscreen (Cytotoxicity in triplicate)), 435028 (Confirmation (IDE inhibitors in triplicate)) …; assay type: functional; conditions: HEK293
[2] = biological target: T1, Insulin-degrading enzyme (Homo sapiens, UniProt P14735); assay: Dose Response: Fluorescence polarization-based cell-based high throughput dose response assay for inhibitors of insulin-degrading enzyme (IDE). [Related pubchem assays: 434962 (Primary screen (IDE inhibitors in singlicate)), 449730 (Counterscreen (Cytotoxicity in triplicate)), 435028 (Confirmation (IDE inhibitors in triplicate)), 434984 (Summary …; assay type: functional
T1 sequence (P14735 whole entry): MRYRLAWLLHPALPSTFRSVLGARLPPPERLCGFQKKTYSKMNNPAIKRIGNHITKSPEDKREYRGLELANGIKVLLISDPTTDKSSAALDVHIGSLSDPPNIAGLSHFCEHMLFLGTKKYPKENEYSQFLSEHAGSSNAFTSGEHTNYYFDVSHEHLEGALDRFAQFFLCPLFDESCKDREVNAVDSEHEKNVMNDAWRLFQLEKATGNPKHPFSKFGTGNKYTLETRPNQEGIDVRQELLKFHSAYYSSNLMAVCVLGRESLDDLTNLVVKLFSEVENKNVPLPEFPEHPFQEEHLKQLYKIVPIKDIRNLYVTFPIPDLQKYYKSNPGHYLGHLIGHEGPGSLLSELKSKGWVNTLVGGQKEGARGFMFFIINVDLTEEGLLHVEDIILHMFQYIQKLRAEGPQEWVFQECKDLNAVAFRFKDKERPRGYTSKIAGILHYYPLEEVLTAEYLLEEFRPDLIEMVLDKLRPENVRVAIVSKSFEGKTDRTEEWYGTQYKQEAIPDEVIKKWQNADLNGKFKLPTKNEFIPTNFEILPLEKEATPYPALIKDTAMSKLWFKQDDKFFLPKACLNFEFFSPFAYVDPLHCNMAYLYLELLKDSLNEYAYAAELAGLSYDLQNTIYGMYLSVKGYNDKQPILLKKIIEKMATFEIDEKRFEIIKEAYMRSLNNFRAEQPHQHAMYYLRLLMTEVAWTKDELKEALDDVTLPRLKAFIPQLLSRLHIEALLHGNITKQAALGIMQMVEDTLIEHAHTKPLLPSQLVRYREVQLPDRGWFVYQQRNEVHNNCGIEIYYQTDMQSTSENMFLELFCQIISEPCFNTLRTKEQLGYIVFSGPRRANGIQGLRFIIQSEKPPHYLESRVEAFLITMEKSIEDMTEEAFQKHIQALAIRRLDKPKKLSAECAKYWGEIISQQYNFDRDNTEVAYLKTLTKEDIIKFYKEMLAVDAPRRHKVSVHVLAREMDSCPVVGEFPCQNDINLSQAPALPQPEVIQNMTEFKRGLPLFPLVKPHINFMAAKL

[3] = biological target: T2, Short transient receptor potential channel 4 (Mus musculus, UniProt Q9QUQ5); assay: mouse TRPC4 channel inhibitors, dose response, cell-based, HEK293 TRPC4/mu-opioid, Fluo-4 calcium (AID 434942); assay type: functional;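 further: potency of inhibitors blocking the TRPC4 calcium response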
T2 sequence (Q9QUQ5 whole entry): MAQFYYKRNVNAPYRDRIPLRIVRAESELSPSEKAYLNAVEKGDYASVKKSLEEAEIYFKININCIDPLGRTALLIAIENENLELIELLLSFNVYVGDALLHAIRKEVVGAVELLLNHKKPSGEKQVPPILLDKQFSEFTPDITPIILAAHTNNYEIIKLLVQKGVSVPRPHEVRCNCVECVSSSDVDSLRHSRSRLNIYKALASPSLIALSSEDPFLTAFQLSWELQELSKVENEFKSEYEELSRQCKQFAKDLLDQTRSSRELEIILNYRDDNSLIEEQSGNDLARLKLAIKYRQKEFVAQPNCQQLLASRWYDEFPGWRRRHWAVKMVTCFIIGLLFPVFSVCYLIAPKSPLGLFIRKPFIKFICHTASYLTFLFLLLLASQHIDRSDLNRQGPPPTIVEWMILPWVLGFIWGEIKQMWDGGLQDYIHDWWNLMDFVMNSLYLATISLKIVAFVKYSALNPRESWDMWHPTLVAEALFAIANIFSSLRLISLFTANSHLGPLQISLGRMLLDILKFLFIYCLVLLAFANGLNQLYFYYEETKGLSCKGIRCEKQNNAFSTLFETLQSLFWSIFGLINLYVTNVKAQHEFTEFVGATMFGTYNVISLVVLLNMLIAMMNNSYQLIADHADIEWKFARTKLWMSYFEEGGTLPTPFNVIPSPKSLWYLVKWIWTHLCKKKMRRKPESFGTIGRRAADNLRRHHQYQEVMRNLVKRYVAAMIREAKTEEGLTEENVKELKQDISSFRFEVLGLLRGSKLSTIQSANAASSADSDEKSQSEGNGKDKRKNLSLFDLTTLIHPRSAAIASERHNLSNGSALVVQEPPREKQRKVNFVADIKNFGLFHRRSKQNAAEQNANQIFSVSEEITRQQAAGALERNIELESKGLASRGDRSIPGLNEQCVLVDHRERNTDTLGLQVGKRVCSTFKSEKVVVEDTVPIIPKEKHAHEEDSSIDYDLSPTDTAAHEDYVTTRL

[4] = cells; assay type: functional, cell-based
[5] = cells; assay type: functional, cell-based; remark: listed apart in the source
[6] = biological target: Glyceraldehyde-3-phosphate dehydrogenase (Homo sapiens, UniProt P04406)
[7] = biological target: T3, Cytochrome P450 3A4 (Homo sapiens, UniProt P08684); conditions: Potency
[8] = system: HEK293; assay: cells; assay type: functional, cell-based; conditions: Homo sapiens
[9] = biological target: Nucleotide-binding oligomerization domain-containing protein 2 (Homo sapiens, UniProt Q9HC29); assay: NOD2 signaling inhibitors, cell-based, luminescence, uHTS, HEK293 (AID 1566); assay type: functional
[10] = system: HEK293; assay: NOD2 signaling inhibitors in MDP-stimulated cells, cell-based, uHTS, luminescence (AID 2001); assay type: functional; conditions: Homo sapiens
[11] = system: HEK293; assay: cells; assay type: functional, cell-based; conditions: Homo sapiens; remark: listed apart in the source
[12] = system: HEK293; assay: NOD1 signaling inhibitors, primary screen, cell-based, luminescence, uHTS (AID 1578); assay type: functional; conditions: Homo sapiens
[13] = system: HEK293; assay: cells; assay type: functional, cell-based; conditions: Homo sapiens; remark: listed apart in the source
[14] = biological target: T3, Cytochrome P450 3A4
[15] = biological target: Cytochrome P450 2C9 (Homo sapiens, UniProt P11712)
[16] = biological target: Cytochrome P450 2C19 (Homo sapiens, UniProt P33261); assay: Cytochrome panel assay with activity outcomes. Panel member name: p450-cyp2c19 Compounds with AC50 equal or less than 10 uM are considered active; assay type: functional; conditions: read-out: AC50
Cytochrome P450 2C19, sequence (P33261 whole entry): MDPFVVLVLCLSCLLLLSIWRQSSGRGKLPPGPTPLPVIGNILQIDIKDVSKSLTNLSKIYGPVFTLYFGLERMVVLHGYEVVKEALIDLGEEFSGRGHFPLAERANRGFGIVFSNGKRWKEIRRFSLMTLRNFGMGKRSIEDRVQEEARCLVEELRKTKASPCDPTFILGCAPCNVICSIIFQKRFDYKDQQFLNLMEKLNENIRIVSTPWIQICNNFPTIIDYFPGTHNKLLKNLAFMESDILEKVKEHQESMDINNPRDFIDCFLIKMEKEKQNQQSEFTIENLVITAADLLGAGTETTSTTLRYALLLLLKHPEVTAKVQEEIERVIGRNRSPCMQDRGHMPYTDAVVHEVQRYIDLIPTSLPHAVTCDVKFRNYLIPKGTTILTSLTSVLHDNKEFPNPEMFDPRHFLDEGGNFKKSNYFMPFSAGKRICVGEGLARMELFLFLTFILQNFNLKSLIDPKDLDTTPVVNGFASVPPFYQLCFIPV

T3 sequence (P08684 whole entry): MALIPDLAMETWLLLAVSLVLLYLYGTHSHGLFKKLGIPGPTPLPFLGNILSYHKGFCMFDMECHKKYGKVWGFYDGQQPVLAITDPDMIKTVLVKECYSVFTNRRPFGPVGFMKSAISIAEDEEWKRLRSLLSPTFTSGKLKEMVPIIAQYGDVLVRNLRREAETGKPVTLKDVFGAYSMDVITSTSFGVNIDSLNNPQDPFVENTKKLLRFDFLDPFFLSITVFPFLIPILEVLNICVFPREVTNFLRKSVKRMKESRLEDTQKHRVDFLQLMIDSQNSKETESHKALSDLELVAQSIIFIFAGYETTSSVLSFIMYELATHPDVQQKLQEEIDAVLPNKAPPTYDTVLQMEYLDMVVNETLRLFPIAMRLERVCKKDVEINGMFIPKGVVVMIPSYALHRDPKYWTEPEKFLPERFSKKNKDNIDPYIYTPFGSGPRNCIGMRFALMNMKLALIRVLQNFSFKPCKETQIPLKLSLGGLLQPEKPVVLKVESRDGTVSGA
Nucleotide-binding oligomerization domain-containing protein 2, sequence (Q9HC29 whole entry, the tested form may be a part): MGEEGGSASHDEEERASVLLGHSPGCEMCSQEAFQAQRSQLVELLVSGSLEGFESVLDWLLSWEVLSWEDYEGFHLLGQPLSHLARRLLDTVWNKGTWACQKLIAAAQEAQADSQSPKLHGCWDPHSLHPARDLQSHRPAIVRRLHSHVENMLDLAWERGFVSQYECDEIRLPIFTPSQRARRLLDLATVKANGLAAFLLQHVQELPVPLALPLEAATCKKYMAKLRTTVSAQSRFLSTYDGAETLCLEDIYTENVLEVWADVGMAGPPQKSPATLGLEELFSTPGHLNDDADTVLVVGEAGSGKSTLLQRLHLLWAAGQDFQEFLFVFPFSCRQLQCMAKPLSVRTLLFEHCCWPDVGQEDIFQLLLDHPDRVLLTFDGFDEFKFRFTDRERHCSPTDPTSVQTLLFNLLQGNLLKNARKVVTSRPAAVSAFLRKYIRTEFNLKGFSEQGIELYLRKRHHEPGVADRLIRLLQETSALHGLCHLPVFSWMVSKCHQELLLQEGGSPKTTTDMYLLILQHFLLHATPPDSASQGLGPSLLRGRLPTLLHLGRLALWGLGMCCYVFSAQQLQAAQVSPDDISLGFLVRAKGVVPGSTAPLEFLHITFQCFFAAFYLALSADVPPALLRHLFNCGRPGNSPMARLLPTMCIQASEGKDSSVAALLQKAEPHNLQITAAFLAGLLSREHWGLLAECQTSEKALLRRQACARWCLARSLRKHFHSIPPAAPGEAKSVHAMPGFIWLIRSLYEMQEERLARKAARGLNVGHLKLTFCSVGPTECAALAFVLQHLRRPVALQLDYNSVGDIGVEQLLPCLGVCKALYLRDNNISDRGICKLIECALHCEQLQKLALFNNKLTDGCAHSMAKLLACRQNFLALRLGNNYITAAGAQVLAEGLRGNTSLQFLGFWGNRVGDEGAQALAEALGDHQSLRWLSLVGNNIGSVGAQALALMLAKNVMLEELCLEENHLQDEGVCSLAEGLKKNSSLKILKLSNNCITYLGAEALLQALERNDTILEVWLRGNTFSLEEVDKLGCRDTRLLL
Cytochrome P450 2C9, sequence (P11712 whole entry): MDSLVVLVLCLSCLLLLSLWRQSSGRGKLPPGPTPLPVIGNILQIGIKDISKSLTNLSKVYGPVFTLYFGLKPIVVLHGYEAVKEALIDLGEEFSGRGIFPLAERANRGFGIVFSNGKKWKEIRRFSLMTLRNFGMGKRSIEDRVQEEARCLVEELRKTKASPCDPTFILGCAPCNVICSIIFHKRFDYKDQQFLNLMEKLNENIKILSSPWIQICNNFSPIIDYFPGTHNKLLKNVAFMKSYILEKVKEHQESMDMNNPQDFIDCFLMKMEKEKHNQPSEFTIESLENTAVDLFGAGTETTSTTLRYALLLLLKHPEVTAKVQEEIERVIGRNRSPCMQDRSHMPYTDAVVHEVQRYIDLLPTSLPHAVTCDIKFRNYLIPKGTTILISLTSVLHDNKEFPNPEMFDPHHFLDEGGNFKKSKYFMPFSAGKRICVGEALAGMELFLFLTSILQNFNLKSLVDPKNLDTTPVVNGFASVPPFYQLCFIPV
Glyceraldehyde-3-phosphate dehydrogenase, sequence (P04406 whole entry): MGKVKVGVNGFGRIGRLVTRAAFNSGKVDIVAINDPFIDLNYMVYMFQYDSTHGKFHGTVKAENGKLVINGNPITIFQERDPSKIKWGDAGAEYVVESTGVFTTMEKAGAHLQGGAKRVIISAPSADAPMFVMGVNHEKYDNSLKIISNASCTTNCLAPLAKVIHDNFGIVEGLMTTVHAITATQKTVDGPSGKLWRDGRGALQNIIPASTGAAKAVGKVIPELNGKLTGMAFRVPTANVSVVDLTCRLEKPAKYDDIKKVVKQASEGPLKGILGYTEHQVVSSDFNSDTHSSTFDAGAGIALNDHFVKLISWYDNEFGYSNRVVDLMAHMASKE

SMILES: Cc1ccc(-c2cc(C(=O)Nc3ccc(S(=O)(=O)Nc4ncccn4)cc3)[nH]n2)c(O)c1C
- IC50 [1]: > 55.7 µM (not active)
- IC50 [2]: 17.7 µM (not active)

SMILES: O=C(c1cccc(C(F)(F)F)c1)C1CCCN(Cc2ccccc2O)C1 (stereo unspecified)
- EC50 [3]: 2.37 µM (active)

SMILES: O=C(O)c1ccc2cccc(O)c2n1
- EC50 [4]: > 350 µM (not active)
- EC50 [5]: > 350 µM (not active)
- IC50 [6]: > 100 µM (not active)

SMILES: COc1cc(-c2oc3cc(O)ccc3c(=O)c2O)ccc1O [GERALDOL]
- AC50 [7]: 10 µM (inconclusive)

SMILES: COCC(C)n1c(C)cc(C(=O)COc2ccc(C)nc2[N+](=O)[O-])c1C (stereo unspecified)
- IC50 [8]: 6.88 µM (active)
- EC50 [9]: 16.7 µM (active)
- IC50 [10]: > 20 µM (inactive)
- IC50 [11]: > 20 µM (inactive)
- EC50 [12]: > 20 µM (inactive)
- IC50 [13]: > 20 µM (inactive)

SMILES: COc1ccc(CNC(=O)c2ccc3ccccc3n2)cc1OC
- IC50 [8]: 14.5 µM (active)
- EC50 [9]: 11.7 µM (active)
- IC50 [10]: > 20 µM (inactive)
- IC50 [11]: > 20 µM (inactive)
- EC50 [12]: 7.83 µM (active)
- IC50 [13]: > 20 µM (inactive)

SMILES: Cc1cccc(Oc2coc3cc(OC(=O)c4cc5ccccc5oc4=O)ccc3c2=O)c1
- AC50 [14]: 39.8 µM (inconclusive)
- AC50 [15]: inconclusive
- AC50 [16]: 25.1 µM (inconclusive)

SMILES: CC(C(=O)O)c1ccc(N2Cc3ccccc3C2=O)cc1 (stereo unspecified) [INDOPROFEN]
- AC50 [7]: 39.8 µM (inconclusive)

SMILES: CN(C)C(=O)c1ccc(-n2nc(C(F)(F)F)c3c2CCCC3)cc1
- AC50 [15]: inconclusive

SMILES: Cc1ccccc1CN1CCCC(C(=O)Nc2ccccc2Oc2cccnc2)C1 (stereo unspecified)
- EC50 [3]: 5.31 µM (active)

SMILES: COc1ccccc1-c1oc2ccccc2c(=O)c1OC
- AC50 [7]: 20 µM (inconclusive)
